Test results taken from patent US20140163095A1, “USE OF ERIBULIN IN THE TREATMENT OF BREAST CANCER” (priority 2012, published 2014).

Test system: locally advanced or metastatic breast cancer
Assay: Phase III clinical trial comparing eribulin mesylate and capecitabine
[1] = of patients with any new metastasis

Procedure: A global, randomized, open-label, two-parallel-arm, phase III clinical trial of eribulin (eribulin mesylate) and capecitabine was performed.
This study randomized 1102 patients who had up to three prior chemotherapy regimens, and no more than two prior regimens for advanced and/or metastatic disease. The prior regimens must have included an anthracycline and a taxane, either in the (neo) adjuvant setting or for locally advanced or metastatic disease. Patients must have had documented evidence of progression during or after their most recent anti-cancer therapy. […] Patients were randomized to receive either eribulin mesylate as an intravenous (IV) infusion of 1.4 mg/m^2 over 2-5 minutes on days 1 and 8 every 21 days or capecitabine as an oral administration of 2.5 g/m^2/day administered twice daily in two equal doses on days 1 to 14 every 21 days.
This study was designed to have co-primary endpoints, overall survival (OS) and progression free survival (PFS), with alpha spending 0.04 and 0.01, respectively.
Progression events (disease progression determined by Response Evaluation Criteria in Solid Tumors [RECIST, version 1.0]) were categorized as: (i) emergence of a new lesion/metastasis, defined here as a lesion identified at progression that had not been previously reported, (ii) increase in size of an existing (previously reported) lesion (target or non-target), and (iii) other PFS event, e.g., death, clinical progression, or censoring. Investigator review of disease progression was used as the primary analysis for these investigations. Where progression was determined by investigator review, no further scans were performed, leading to informative censoring of independent review data (approximately 20%). The number of new metastases observed by independent review was considered an under-estimate due to this considerable informative censoring. OS and PFS were compared between treatment arms using two-sided, stratified (geographic region and HER2 status) log-rank tests. The correlation between progression events and OS was investigated by Cox regression, incorporating the event as a time-dependent covariate. New metastasis-free survival, defined as time from randomization to death or progression due to appearance of a new metastasis (whichever occurs earlier), was also analyzed.

CCCCCOC(=O)Nc1nc(=O)n([C@@H]2O[C@H](C)[C@@H](O)[C@H]2O)cc1F [Capecitabine, reference compound]
median overall survival (OS) (all randomized patients): 14.5 months
median progression-free survival (PFS) (all randomized patients): 4.2 months
New metastasis site: Bone, patients (count): 62
New metastasis site: Breast, patients (count): 13
New metastasis site: CNS (brain/spine), patients (count): 25
New metastasis site: Chest wall, patients (count): 5
New metastasis site: Liver, patients (count): 74
New metastasis site: Lung, patients (count): 76
New metastasis site: Lymph nodes, patients (count): 55
New metastasis site: Other, patients (count): 53
New metastasis site: Skin, patients (count): 26
Number of patients with any new metastasis observed (count, investigator review, intent-to-treat): 316
patients with progression due to a new metastasis (investigator review): 52.0%
patients with progression due to increase in the size of a pre-existing lesion (investigator review): 23.5%
patients with progression due to other reasons such as death and clinical progression (investigator review): 24.5%
patients with any new metastasis observed, percentage (investigator review, intent-to-treat): (57.7) %
New metastasis site: Bone, percentage [1]: (19.6) %
New metastasis site: Breast, percentage [1]: (4.1) %
New metastasis site: CNS (brain/spine), percentage [1]: (7.9) %
New metastasis site: Chest wall, percentage [1]: (1.6) %
New metastasis site: Liver, percentage [1]: (23.4) %
New metastasis site: Lung, percentage [1]: (24.1) %
New metastasis site: Lymph nodes, percentage [1]: (17.4) %
New metastasis site: Other, percentage [1]: (16.8) %
New metastasis site: Skin, percentage [1]: (8.2) %
Median OS (patients whose disease progressed due to other events): 15.5 months
Median OS (patients with progression due to new metastasis): 12.9 months
Median OS (patients with progression due to pre-existing lesion): 17.4 months
